Laboratory results reported in US20090181934A1, “Organic Compounds” (Novartis AG, priority 2007, published 2009).
Counter-ions that a name gives are not always drawn.

Biological target: adenosine A2A receptor (Homo sapiens, UniProt P29274)
Experiment: adenosine A2A receptor agonist assay (method of Murphree et al)
Format: binding
Conditions: method of L. J. Murphree et al, Molecular Pharmacology 61, 455-462 (2002)
Source text: The compounds of (A) activate the adenosine […] receptor, i.e. they act as A2A receptor agonists.

Chain of adenosine A2A receptor (P29274 whole entry): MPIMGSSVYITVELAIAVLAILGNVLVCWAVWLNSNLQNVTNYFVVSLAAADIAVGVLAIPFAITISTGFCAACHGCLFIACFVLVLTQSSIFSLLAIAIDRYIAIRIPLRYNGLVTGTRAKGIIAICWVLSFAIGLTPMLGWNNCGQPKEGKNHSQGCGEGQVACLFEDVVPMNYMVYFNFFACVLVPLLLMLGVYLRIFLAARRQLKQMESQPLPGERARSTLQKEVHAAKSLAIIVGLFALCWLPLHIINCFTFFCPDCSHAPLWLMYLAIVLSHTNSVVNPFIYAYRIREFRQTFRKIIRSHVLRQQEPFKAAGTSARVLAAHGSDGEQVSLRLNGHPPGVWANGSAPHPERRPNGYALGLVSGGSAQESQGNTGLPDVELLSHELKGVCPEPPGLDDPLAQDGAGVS

Ki: 4 nM
SMILES: COC(=O)N[C@H]1C[C@@H](n2cnc3c(NCC(c4ccccc4)c4ccccc4)nc(N4CC[C@@H](NC(=O)Nc5cccnc5)C4)nc32)[C@H](O)[C@@H]1O [Example 1, ((1S,2R,3S,4R)-4-{6-(2,2-Diphenyl-ethylamino)-2-[(R)-3-(3-pyridin-3-yl-ureido)-pyrrolidin-1-yl]-purin-9-yl}-2,3-dihydroxy-cyclopentyl)-carbamic acid methyl ester hydrochloride]
